# According to patent EP0889898B1, “MORPHOLINYL ANTHRACYCLINE DERIVATIVES” (PHARMACIA & UPJOHN S.p.A., priority 1996, dated 1998):
# Test system: L1210 leukemia cells
# Test: In vitro cytotoxic activity, growth inhibition test (colony growth), 48h treatment
# Assay type: cell-based
# Conditions: ratio of IC50 values versus compound 1
# Protocol: 3'-Deamino-3",4'-anhydro-[2"(S)-methoxy-3"(R)-hydroxy-4"-morpholinyl]doxorubicin 2a was tested in vitro on L1210 leukemia cells in comparison with 3'-deamino-3'-[2"(S)-methoxy-4"-morpholinyl]doxorubicin (1). The cytotoxic activity is reported as IC50, the concentration inhibiting 50% of colony growth, calculated on concentration response curves. […]
smiles,measurement,value
"COc1cccc2c1C(=O)c1c(O)c3c(c(O)c1C2=O)CC(O)(C(=O)CO)CC3OC1CC2C(OC3C(OC)OCCN23)C(C)O1 [Compound 2a, 3'-deamino-3""-4'-anhydro-[2""(S)-methoxy-3""(R)-hydroxy-4""-morpholinyl]doxorubicin]",fold more potent than compound 1,2.5x10^3 fold
